Assay results reported in paper PMC2430034, “Structural Development Studies of Subtype-Selective Ligands for Peroxisome Proliferator-Activated Receptors (PPARs) Based on the 3,4-Disubstituted Phenylpropanoic Acid Scaffold as a Versatile Template” (PPAR Research, 2008).
Like-named read-outs stand apart in the source and are kept apart here.

Assays:
Assay type in all cases: cell-based
PPARα [1] = target: T1, PPARα (Homo sapiens, UniProt Q07869); assay: PPARα-GAL4 chimeric receptor transactivation in CHO-K1 cells; conditions: for EC50: read-out: Transactivation activity EC50 PPARα; for Transactivation activity EC50 PPARα: PPAR-GAL4 chimeric receptors, transiently transfected CHO-K1 cells, ia = inactive at 10 μM
T1 sequence (Q07869 200-468 limits assumed): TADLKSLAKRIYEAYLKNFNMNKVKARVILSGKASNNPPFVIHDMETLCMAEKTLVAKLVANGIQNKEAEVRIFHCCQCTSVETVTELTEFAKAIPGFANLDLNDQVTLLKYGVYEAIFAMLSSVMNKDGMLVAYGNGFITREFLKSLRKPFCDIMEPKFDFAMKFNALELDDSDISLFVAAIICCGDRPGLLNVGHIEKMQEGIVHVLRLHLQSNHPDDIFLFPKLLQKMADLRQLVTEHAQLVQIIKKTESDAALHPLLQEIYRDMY

PPARδ [2] = target: T2, PPARδ (Homo sapiens, UniProt Q03181); assay: cell-based; conditions: PPAR-GAL4 chimeric receptors, transiently transfected CHO-K1 cells, ia = inactive at 10 μM; for EC50: read-out: Transactivation activity EC50 PPARδ
T2 sequence (Q03181 211-441 limits assumed): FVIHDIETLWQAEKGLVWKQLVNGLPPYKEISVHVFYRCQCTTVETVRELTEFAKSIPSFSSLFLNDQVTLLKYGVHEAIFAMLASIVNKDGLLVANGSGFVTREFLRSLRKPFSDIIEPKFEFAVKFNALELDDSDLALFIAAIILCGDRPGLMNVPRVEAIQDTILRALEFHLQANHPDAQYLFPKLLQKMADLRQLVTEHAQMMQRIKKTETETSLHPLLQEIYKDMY

PPARγ [3] = target: T3, PPARγ (Homo sapiens, UniProt P37231); assay: cell-based; conditions: PPAR-GAL4 chimeric receptors, transiently transfected CHO-K1 cells, ia = inactive at 10 μM
T3 sequence (P37231 232-505 limits assumed): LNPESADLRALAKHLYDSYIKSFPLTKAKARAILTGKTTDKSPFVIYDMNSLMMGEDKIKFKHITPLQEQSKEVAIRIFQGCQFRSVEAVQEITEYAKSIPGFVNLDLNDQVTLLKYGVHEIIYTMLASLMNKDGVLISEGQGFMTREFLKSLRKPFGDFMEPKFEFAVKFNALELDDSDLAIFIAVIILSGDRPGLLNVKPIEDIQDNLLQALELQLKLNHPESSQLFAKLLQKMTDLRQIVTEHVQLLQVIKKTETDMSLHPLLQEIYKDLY

PPARα [4] = target: T1, PPARα; assay: PPARα-GAL4 chimeric receptor transactivation in HEK-293 cells; conditions: PPAR-GAL4 chimeric receptors, transiently transfected HEK-293 cells; ia = inactive at 10 μM
PPARδ [5] = target: T4, PPARδ (Homo sapiens, UniProt Q03181); assay: cell-based; conditions: PPAR-GAL4 chimeric receptors, transiently transfected HEK-293 cells; ia = inactive at 10 μM; read-out: Transactivation activity EC50 PPARδ
T4 sequence (Q03181 171-441 limits assumed): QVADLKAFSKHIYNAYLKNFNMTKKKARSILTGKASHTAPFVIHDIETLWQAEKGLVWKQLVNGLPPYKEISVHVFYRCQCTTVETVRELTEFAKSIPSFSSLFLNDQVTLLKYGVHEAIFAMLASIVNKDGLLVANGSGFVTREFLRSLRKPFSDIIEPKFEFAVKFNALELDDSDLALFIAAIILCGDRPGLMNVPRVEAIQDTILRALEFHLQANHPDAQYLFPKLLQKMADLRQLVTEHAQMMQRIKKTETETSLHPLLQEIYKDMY

PPARγ [6] = target: T5, PPARγ (Homo sapiens, UniProt P37231); assay: cell-based; conditions: for EC50: read-out: Transactivation activity EC50 PPARγ
T5 sequence (P37231 238-505 limits assumed): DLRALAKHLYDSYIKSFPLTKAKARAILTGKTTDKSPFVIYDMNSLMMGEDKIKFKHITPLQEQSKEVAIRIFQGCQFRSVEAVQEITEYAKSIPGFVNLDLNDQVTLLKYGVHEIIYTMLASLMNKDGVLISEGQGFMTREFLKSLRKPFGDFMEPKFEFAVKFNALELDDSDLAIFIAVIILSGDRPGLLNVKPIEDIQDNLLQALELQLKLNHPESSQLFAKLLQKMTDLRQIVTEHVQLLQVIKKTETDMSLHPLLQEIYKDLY

[7] = PPAR-GAL4 chimeric receptors, transiently transfected HEK-293 cells, ia = inactive at 10 μM

| SMILES | EC50 (PPARα [1]) [µM] | Transactivation activity EC50 PPARδ (PPARδ [2]) | Transactivation activity EC50 PPARγ (PPARγ [3]) | EC50 (PPARα [4]) [µM] | EC50 (PPARδ [5]) [µM] | also measured |
| --- | --- | --- | --- | --- | --- | --- |
| CCC(Cc1ccc(OC)c(C(=O)Nc2ccc(C(F)(F)F)cc2)c1)C(=O)O (stereo not shown) [Compound 24] | 6 | ia^(b) | ia |  |  |  |
| CCC(Cc1ccc(OC)c(C(=O)NCCc2ccc(C(F)(F)F)cc2)c1)C(=O)O (stereo not shown) [Compound 25] | 0.74 |  | ia |  |  | EC50 (PPARδ [2]): 1.5 µM |
| CCC(Cc1ccc(OC)c(C(=O)N(C)Cc2ccc(C(F)(F)F)cc2)c1)C(=O)O (stereo not shown) [Compound 26] |  | ia | ia |  |  | Transactivation activity EC50 PPARα (PPARα [1]): ia |
| CCC(Cc1ccc(OC)c(NC(=O)Cc2ccc(C(F)(F)F)cc2)c1)C(=O)O (stereo not shown) [Compound 27] | 0.13 | ia | ia |  |  |  |
| CCC(Cc1ccc(OC)c(NC(=O)Nc2ccc(C(F)(F)F)cc2)c1)C(=O)O (stereo not shown) [Compound 28] |  | ia | ia |  |  | Transactivation activity EC50 PPARα (PPARα [1]): ia |
| CCC(Cc1ccc(OC)c(CC(=O)Nc2ccc(C(F)(F)F)cc2)c1)C(=O)O (stereo not shown) [Compound 29] | 0.02 | ia | ia |  |  |  |
| CCC(Cc1ccc(OC)c(C(=O)CCc2ccc(C(F)(F)F)cc2)c1)C(=O)O (stereo not shown) [Compound 30] | 0.32 | ia |  |  |  | EC50 (PPARγ [3]; read-out: Transactivation activity EC50 PPARγ): 7.4 µM |
| CCC(Cc1ccc(OC)c(CCCc2ccc(C(F)(F)F)cc2)c1)C(=O)O (stereo not shown) [Compound 31] | 0.86 |  | ia |  |  | EC50 (PPARδ [2]): 0.64 µM |
| CCC(Cc1ccc(OC)c(OCCc2ccc(C(F)(F)F)cc2)c1)C(=O)O (stereo not shown) [Compound 32] | 0.68 |  | ia |  |  | EC50 (PPARδ [2]): 0.4 µM |
| CCC(Cc1ccc(OC)c(CNCc2ccc(C(F)(F)F)cc2)c1)C(=O)O (stereo not shown) [Compound 34] | 4.9 |  | ia |  |  | EC50 (PPARδ [2]): 8 µM |
| CCC(Cc1ccc(OC)c(CNC(=O)c2ccc(C(F)(F)F)c(F)c2)c1)C(=O)O (stereo not shown) [Compound 39] |  |  |  | 0.011 | 0.051 | EC50 (PPARγ [6]; [7]): 6 µM |
| CCC(Cc1ccc(OC)c(CNC(=O)c2ccc(F)c(C(F)(F)F)c2)c1)C(=O)O (stereo not shown) [Compound 40] |  |  |  | 0.25 | 2 | Transactivation activity EC50 PPARγ (PPARγ [6]; [7]): ia^(b) |
| CC[C@@H](Cc1ccc(OC)c(CNC(=O)c2ccc(C(F)(F)F)c(F)c2)c1)C(=O)O [Compound 42] |  |  |  | 0.012 | 0.023 | EC50 (PPARγ [6]): 4.9 µM |
| CC[C@H](Cc1ccc(OC)c(CNC(=O)c2ccc(C(F)(F)F)c(F)c2)c1)C(=O)O [Compound 43] |  |  |  | 0.15 | 0.84 | Transactivation activity EC50 PPARγ (PPARγ [6]; [7]): ia^(b) |
| CCOc1ccc(CC(CC)C(=O)O)cc1CNC(=O)c1ccc(C(F)(F)F)cc1 (stereo not shown) [Compound 50] |  |  |  | 0.012 | 0.015 | EC50 (PPARγ [6]; [7]): 1.8 µM |
| CCC(Cc1ccc(OCc2ccccc2)c(CNC(=O)c2ccc(C(F)(F)F)cc2)c1)C(=O)O (stereo not shown) [Compound 54] |  |  |  |  | 0.11 | EC50 (PPARγ [6]): 6.2 µM |
| COc1ccc(CCC(=O)O)cc1CNC(=O)c1ccc(C(F)(F)F)cc1 [Compound 58] |  |  |  | 0.21 | 3 |  |
| COc1ccc(CC(C)C(=O)O)cc1CNC(=O)c1ccc(C(F)(F)F)cc1 (stereo not shown) [Compound 59] |  |  |  | 0.019 | 0.21 |  |
| COc1ccc(CC2SC(=O)NC2=O)cc1C(=O)NCc1ccc(C(F)(F)F)cc1 (stereo not shown) [KRP-297, reference compound] |  | ia |  |  |  |  |
